Where two headings read alike, the source gives them in different places.
What was measured:
Rec-1 cells = assay: Cell cycle analysis (PI, Muse flow cytometer); type: cell-based, human; settings: Rec-1, 1 μM inhibitor + ^177Lu-lilotomab, versus ^177Lu-lilotomab alone or untreated
Ramos cells = assay: Cell cycle analysis (PI, Muse flow cytometer); type: cell-based, human; settings: 1 μM inhibitor + ^177Lu-lilotomab, versus ^177Lu-lilotomab alone or untreated
DOHH2 cells = assay: Cell cycle analysis (PI, Muse flow cytometer); type: cell-based, human; settings: DOHH2, 1 μM inhibitor + ^177Lu-lilotomab, versus ^177Lu-lilotomab alone or untreated
OCI-Ly8 tumor xenografts = assay: Treatment of mice with tumor xenografts
U2932 cells = assay: Real Time Glo viability assay, Betalutin and cell cycle inhibitors (Example 2); type: cell-based, human; settings: Homo sapiens, read-out: Growth inhibition (signal treated/control; 1 = no change); for viability at 0.1 µM: U2932, U2932, drug 100 nM; for viability at 1 µM: U2932, U2932, drug 1 μM
Protocol: (§1) Cells were split twice a week 1:3-1:5 depending on cell density. […] Real Time Glo was purchased from Promega. 384 well plates were purchased from Greiner Bio-One.
(§2) Cells were treated for 18-20 h with Betalutin at a final concentration of 1 μg/ml and 2 μg/ml in 6-well cell culture plates with shaking. After treatment, PBS was added to the cells, and the cells pelleted. Cells were first resuspended in 1 ml PBS, then washed twice in PBS and finally diluted in growth medium at the desired concentration. All cell lines were treated at a cell concentration of 2.5*10^6 cells/ml.
(§3) Regardless of cell number the culturing volume was 25 μl. For Real Time Glo, the Cell Viability Substrate and NanoLuc® Enzyme were diluted 1:500 in growth medium, and 25 μL of diluted reagents added to each well. All reagents were equilibrated to 37° C. Cells were incubated with the reaction mix for 1 h at 37° C. before the first measurement of luminescence. Measurements were repeated as often as required within 72 h after adding the reagents. Digitonin was added to cells at 200 μg/ml to record background luminescence of dead cells. A Tecan SPARK 10M plate reader was used to measure luminescence, with an integration time set to 1 sec.
(§4) Growth inhibition was calculated by dividing the luminescence signal of the treated cells by the luminescence signal of the control cells for each day of measurement after start of treatment [Table 1].
(§5) To evaluate effects of the drugs alone [(−)Betalutin] and their combination with Betalutin [(+)Betalutin], we calculated the Z-score for each sample (ZdrugX=1-(+)BetalutindrugX/(−)BetalutindrugX), where (+)BetalutindrugX and (−) BetalutindrugX are the measured luminescence intensity values for drug X in presence and absence of Betalutin, respectively. The calculation of Z-score values separately for each plate enabled comparison of results across plates, despite variations between the plates in overall signal intensity.

RIVA cells = assay: as above; type: cell-based, human; settings: Homo sapiens, RIVA, read-out: Growth inhibition (signal treated/control; 1 = no change); for viability at 0.1 µM: drug 100 nM; for viability at 1 µM: drug 1 μM
Protocol: as §1, §2, §3, §4, §5

For `C=CCn1c(=O)c2cnc(Nc3ccc(N4CCN(C)CC4)cc3)nc2n1-c1cccc(C(C)(C)O)n1` [MK-1775], the “Proportion of cells in G2/M, inhibitor combined with ^177Lu-lilotomab” value (Rec-1 cells) was “reduction of the fraction of G2/M cells”, the “Proportion of cells in G2/M, inhibitor combined with ^177Lu-lilotomab” value (Ramos cells) was “reduction of the fraction of G2/M cells” and the “Proportion of cells in G2/M, inhibitor combined with ^177Lu-lilotomab” value (DOHH2 cells) was “reduction of the fraction of G2/M cells”. The “Tumor growth delay versus ^177Lu-lilotomab alone” value (OCI-Ly8 tumor xenografts; 250 MBq/kg ^177Lu-lilotomab + MK-1775, p=0.05) was “significantly better”, the “Efficacy of combination versus 500 MBq/kg ^177Lu-lilotomab alone” value (OCI-Ly8 tumor xenografts; 250 MBq/kg ^177Lu-lilotomab + MK-1775, p=0.7070) was “as efficient as 500 MBq/kg” and the “Therapeutic efficacy compared with control” value (OCI-Ly8 tumor xenografts; single agent) was “no therapeutic efficacy”. It also gave a viability at 0.1 µM (U2932 cells; (+)Betalutin, Dy3) of 120%, a viability at 0.1 µM (U2932 cells; (+)Betalutin, Dy4) of 95% and a viability at 0.1 µM (U2932 cells; (+)Betalutin, Dy5) of 85%. The viability at 0.1 µM (U2932 cells; (+)Betalutin, Dy6) was 71%, the viability at 0.1 µM (U2932 cells; (−)Betalutin, Dy3) was 100% and the viability at 0.1 µM (U2932 cells; (−)Betalutin, Dy4) was 90%. For the same compound, the viability at 0.1 µM (U2932 cells; (−)Betalutin, Dy5) was 92%, the viability at 0.1 µM (U2932 cells; (−)Betalutin, Dy6) was 103% and the viability at 1 µM (U2932 cells; (+)Betalutin, Dy3) was 104%. For the same compound, the viability at 1 µM (U2932 cells; (+)Betalutin, Dy4) was 94%, the viability at 1 µM (U2932 cells; (+)Betalutin, Dy5) was 89% and the viability at 1 µM (U2932 cells; (+)Betalutin, Dy6) was 80%. It also gave a viability at 1 µM (U2932 cells; (−)Betalutin, Dy3) of 86%, a viability at 1 µM (U2932 cells; (−)Betalutin, Dy4) of 89% and a viability at 1 µM (U2932 cells; (−)Betalutin, Dy5) of 96%. The viability at 1 µM (U2932 cells; (−)Betalutin, Dy6) was 115%, the viability at 0.1 µM (RIVA cells; +Betalutin, Dy3) was 49% and the viability at 0.1 µM (RIVA cells; +Betalutin, Dy4) was 38%. The viability at 0.1 µM (RIVA cells; +Betalutin, Dy5) was 24%, the viability at 0.1 µM (RIVA cells; +Betalutin, Dy6) was 23% and the viability at 0.1 µM (RIVA cells; −Betalutin, Dy3) was 100%. The viability at 0.1 µM (RIVA cells; −Betalutin, Dy4) was 89%, the viability at 0.1 µM (RIVA cells; −Betalutin, Dy5) was 94% and the viability at 0.1 µM (RIVA cells; −Betalutin, Dy6) was 94%. It also gave a viability at 1 µM (RIVA cells; +Betalutin, Dy3) of 2%, a viability at 1 µM (RIVA cells; +Betalutin, Dy4) of 1% and a viability at 1 µM (RIVA cells; +Betalutin, Dy5) of 1%. The viability at 1 µM (RIVA cells; +Betalutin, Dy6) was 1%, the viability at 1 µM (RIVA cells; −Betalutin, Dy3) was 8% and the viability at 1 µM (RIVA cells; −Betalutin, Dy4) was 4%. It also gave a viability at 1 µM (RIVA cells; −Betalutin, Dy5) of 2% and a viability at 1 µM (RIVA cells; −Betalutin, Dy6) of 1%.
